According to patent publication US20260092085A1, “SYNTHETIC TRIPLEX PEPTIDE NUCLEIC ACID-BASED INHIBITORS FOR CANCER THERAPY” (University of Connecticut, priority 2022, published 2026):
{RR} = two arginine residues at the PNA terminus

What was measured:
miR-155 = miR-155 gene expression in SUDHL-2 xenograft tumors; set-up: species or system NSG mice; details: SUDHL-2 xenograft after in vivo treatment
Procedure: Data normalized with average control U6 (n=4) and represented as mean±standard error mean. Unpaired t test was used for statistical analysis. Further statistical analysis was performed relative to Scr-γtcPNA-155. **p<0.01, ***p<0.001.
Further, we corroborated our results in the SUDHL-2 derived xenograft mouse model. We injected the SUDHL-2 cells in the right and left flank of mice. After 14-21 days, when the tumor volume reached 100-200 mm3, the mice were randomized into three treatment groups based on uniform tumor volume distribution in each group. […] (FIG. 27)

PBMC cells = test: Safety assessment by trypan blue assay in PBMC; type: cell-based; details: 500-4000 nM, 48 hours
Procedure: Control is PBS treated PBMC cells. n=3, data represented as mean±standard error mean (SEM).
Safety assessment by trypan blue assay […] blood mononuclear cells (PBMC) (ATCC® PCS-800-011™) were purchased from ATCC (Virginia, USA). The cells were regularly tested for Mycoplasma contamination using MycoAlert™ Mycoplasma detection kit (Lonza). All the cells used in the experiment were passaged less than 2 times. 10,000 PBMC cells were seeded in a 96 well plate. The cells were treated with 500 nM, 1000 nM, 2000 nM and 4000 nM PNA-155 and γtcPNA-155 for 48 hrs in an incubator. The dead cells were examined with trypan blue and further counted using an automated cell counter (Bio-rad).

U2932 tumors = test: Immunostaining of Caspase-3 and Ki67 in treated U2932 tumors; type: in vivo, NSG mice; details: U2932 xenograft
Procedure: FIGS. 17A-D show in vivo studies in U2932 derived xenograft model. (17A) Biodistribution of γtcPNA-155 TAMRA in tumor sections (17B) Tumor volume fold change (n=6, data represented as mean±standard error mean (SEM), *p<0.05, **p<0.01, multiple t-tests one per row was used for statistical analysis). Asterisk denotes the analysis was performed relative to Scr-γtcPNA-155. Diamond symbol denotes the analysis was performed relative to PNA-155. (17C) Representative images showing the effects of Scr-γtcPNA-155, PNA-155, γPNA-155 and γtcPNA-155 on Caspase-3 immunostaining of tumor (magnification; ×20). Autofluorescence (AF) at 514 nm was used to show the tumor. Scale bar=[…]. (17D) Caspase-3 immunostaining quantification, *p<0.05. n=15. The n indicates the number of images.
FIGS. 21A-B show Ki-67 immunostaining (21A) and quantification (21B) in the in vivo treated tumors (n=15), **p<0.01. The n indicates the number of images. Scale bar=50 μm.
Histopathology and immunohistochemistry; The mice were sacrificed by CO2 inhalation when tumor volume reached 2000 mm^3. The tumor and vital organs (e.g., liver, kidney, spleen, lungs, heart) were carefully isolated, weighed, and fixed in the 10% NBF solution. The sections ([…]) of formalin-fixed paraffin-embedded liver and kidney were stained by hematoxylin and eosin for the histological analysis. […]

U2932 cells = test: Annexin V-based apoptosis assay in U2932 cells; type: cell-based, human; details: 48 hours
Procedure: Quantification of apoptotic cells by flow cytometry after treating U2932 cells with PBS as a control and 500 nM Scr-γtcPNA-155, PNA-155, γPNA-155 and γtcPNA-155 for 48 hours. The apoptotic cells and necrotic were stained using Phycoerythrin (PE) Annexin V and 7-Amino-Actinomycin (7-AAD) respectively. The % apoptotic cells after treatment was compared to the PBS treated cells, by setting the same threshold. Bar graph of % apoptotic cells (n=3 technical triplicate), data represented as mean±standard error mean (SEM), *p<0.05, **p<0.01, ***p<0.001, unpaired two-tailed t-test was used for statistical analysis. Representative dot plots of Scr-γtcPNA-155 and γtcPNA-155 treated U2932 cells. The experiment was repeated three times and in triplicate. One out of three representative experiments are shown.
The apoptotic cells and necrotic were stained using Phycoerythrin (PE) Annexin V and 7-Amino-Actinomycin (7-AAD) respectively. The % apoptotic cells after treatment was compared to the PBS treated cells, by setting the same threshold. Bar graph of % apoptotic cells (n=3 technical triplicate), data represented as mean±standard error mean (SEM), **p<0.01, unpaired two-tailed t-test was used for statistical analysis. Representative dot plots of PBS treated and γtcPNA-155 treated U2932 cells. The experiment was repeated three times and in triplicate. One out of three representative experiments is shown.
Apoptosis Assay: 400,000 U2932 cells were seeded in a 12 well plate. The cells were treated with 500 nM PNA-155, γPNA-155, γtcPNA-155, Scr-γ tcPNA-155 or were PBS treated (control) for 48 hrs in an incubator (37° C., 5% CO2). The cells were washed with PBS twice. The cells were centrifuged at 2000 rpm for 4 mins at 4° C. The cell pellet was suspended in IX Annexin V binding buffer. The cells were then counted and 100 μL of cell suspension (containing 2.5×10^5 cells) was passed through the FACS tube. […] 400 μL of IX Annexin V binding buffer was added to the cells and the cells were then analyzed using LSR Fortessa™ X-20 Cell analyzer as indicated above. […]

Substance | miR-155 expression level in tumors (miR-155) | viability of PBMC cell lines (PBMC cells) | Caspase-3 positive cells in tumor sections (U2932 tumors) | Ki67 positive cells in tumor sections (U2932 tumors) | apoptosis by Annexin-V FITC confocal imaging (U2932 cells; U2932, 500 nM) | apoptosis by annexin V flow cytometry (U2932 cells; U2932, 500 nM, versus PNA-155 and γPNA-155 treated group) | increase in apoptosis in comparison to control (U2932 cells; U2932, 10 uM)
PNA-155: conventional full-length regular PNA (23mer), RR-ACCCCTATCACGATTAGCATTAA-RR, SEQ ID NO: 1 (all peptide nucleic acid (PNA), 5' {RR}, 3' {RR}) [reference compound] | significantly reduces miR-155 expression level | did not notice a significant reduction in viability |  |  |  |  | 
γtcPNA-155: serine gamma tail-clamp anti-miR-155 PNA, RR-TJJJJ-OOO-ACCCCTATCACGATTAGCATTAA-RR, SEQ ID NO: 3 (all peptide nucleic acid (PNA); serine gamma PNA, tail-clamp TJJJJ via linkers, Arg-Arg at both ends) |  | did not notice a significant reduction in viability | increase | significant decrease | higher apoptosis | increased apoptosis | 4.5 fold
